Reference: PubChem BioAssay (NCI)
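Five compound concentrations were applied to cells in 96-well plates for 48 hours; endpoints were derived by simple linear interpolation of the resulting dose-response curve. TGI is the concentration that stops growth completely.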

Assays:
Assay in all cases: NCI-60 cell line screen, 48 h
NCI-H23 lung = test system: NCI-H23 lung
RXF 393 renal = test system: RXF 393 renal
SF-539 CNS = test system: SF-539 CNS
NCI-H522 lung = test system: NCI-H522 lung
HL-60(TB) leukemia = test system: HL-60(TB) leukemia
SK-MEL-5 melanoma = test system: SK-MEL-5 melanoma
A498 renal = test system: A498 renal
NCI-H460 lung = test system: NCI-H460 lung
OVCAR-5 ovarian = test system: OVCAR-5 ovarian
TK-10 renal = test system: TK-10 renal
786-0 renal = test system: 786-0 renal
SNB-78 CNS = test system: SNB-78 CNS
SK-MEL-2 melanoma = test system: SK-MEL-2 melanoma
RPMI-8226 leukemia = test system: RPMI-8226 leukemia
M14 melanoma = test system: M14 melanoma
HT29 colon = test system: HT29 colon
SK-OV-3 ovarian = test system: SK-OV-3 ovarian
NCI-H226 lung = test system: NCI-H226 lung
OVCAR-4 ovarian = test system: OVCAR-4 ovarian
CAKI-1 renal = test system: CAKI-1 renal
EKVX NSCLC = test system: EKVX NSCLC
IGROV1 ovarian = test system: IGROV1 ovarian
OVCAR-8 ovarian = test system: OVCAR-8 ovarian
U251 CNS = test system: U251 CNS
SNB-75 CNS = test system: SNB-75 CNS
SK-MEL-28 melanoma = test system: SK-MEL-28 melanoma
SF-295 CNS = test system: SF-295 CNS
UACC-62 melanoma = test system: UACC-62 melanoma
LOX IMVI melanoma = test system: LOX IMVI melanoma
DMS 273 small cell lung = test system: DMS 273 small cell lung
KM12 colon = test system: KM12 colon
SW-620 colon = test system: SW-620 colon
A549 NSCLC = test system: A549 NSCLC
HCT-15 colon = test system: HCT-15 colon
ACHN renal = test system: ACHN renal
COLO 205 colon = test system: COLO 205 colon
MALME-3M melanoma = test system: MALME-3M melanoma
CCRF-CEM leukemia = test system: CCRF-CEM leukemia
SR leukemia = test system: SR leukemia
KM20L2 colon = test system: KM20L2 colon
SNB-19 CNS = test system: SNB-19 CNS
M19-MEL melanoma = test system: M19-MEL melanoma
SN12C renal = test system: SN12C renal
UACC-257 melanoma = test system: UACC-257 melanoma
HCT-116 colon = test system: HCT-116 colon
HCC-2998 colon = test system: HCC-2998 colon
SF-268 CNS = test system: SF-268 CNS
OVCAR-3 ovarian = test system: OVCAR-3 ovarian
MOLT-4 leukemia = test system: MOLT-4 leukemia
HOP-62 NSCLC = test system: HOP-62 NSCLC
UO-31 renal = test system: UO-31 renal
K-562 leukemia = test system: K-562 leukemia
DMS 114 small cell lung = test system: DMS 114 small cell lung
HOP-92 NSCLC = test system: HOP-92 NSCLC

COC(=O)c1s/c(=N\C(=S)N(C)C)n(-c2ccc(Cl)cc2)c1C(=O)OC
TGI (NCI-H23 lung): > 100 µM | TGI (RXF 393 renal): > 100 µM | TGI (SF-539 CNS): > 100 µM | TGI (NCI-H522 lung): > 100 µM | TGI (HL-60(TB) leukemia): > 100 µM | TGI (SK-MEL-5 melanoma): > 10 µM | TGI (A498 renal): > 100 µM | TGI (NCI-H460 lung): > 100 µM | TGI (OVCAR-5 ovarian): > 100 µM | TGI (TK-10 renal): > 100 µM | TGI (786-0 renal): > 100 µM | TGI (SNB-78 CNS): > 100 µM | TGI (SK-MEL-2 melanoma): > 100 µM | TGI (RPMI-8226 leukemia): > 100 µM | TGI (M14 melanoma): > 100 µM | TGI (HT29 colon): > 100 µM | TGI (SK-OV-3 ovarian): > 10 µM | TGI (NCI-H226 lung): > 100 µM | TGI (OVCAR-4 ovarian): > 100 µM | TGI (CAKI-1 renal): > 100 µM | TGI (EKVX NSCLC): > 100 µM | TGI (IGROV1 ovarian): > 10 µM | TGI (OVCAR-8 ovarian): > 100 µM | TGI (U251 CNS): > 100 µM | TGI (SNB-75 CNS): > 10 µM | TGI (SK-MEL-28 melanoma): > 100 µM | TGI (SF-295 CNS): > 100 µM | TGI (UACC-62 melanoma): > 10 µM | TGI (LOX IMVI melanoma): > 100 µM | TGI (DMS 273 small cell lung): > 100 µM | TGI (KM12 colon): > 100 µM | TGI (SW-620 colon): > 100 µM | TGI (A549 NSCLC): > 100 µM | TGI (HCT-15 colon): > 100 µM | TGI (ACHN renal): > 100 µM | TGI (COLO 205 colon): > 100 µM | TGI (MALME-3M melanoma): > 100 µM | TGI (CCRF-CEM leukemia): > 100 µM | TGI (SR leukemia): > 100 µM | TGI (KM20L2 colon): > 100 µM | TGI (SNB-19 CNS): > 100 µM | TGI (M19-MEL melanoma): > 100 µM | TGI (SN12C renal): > 100 µM | TGI (UACC-257 melanoma): > 100 µM | TGI (HCT-116 colon): > 100 µM | TGI (HCC-2998 colon): > 100 µM | TGI (SF-268 CNS): > 100 µM | TGI (OVCAR-3 ovarian): > 100 µM | TGI (MOLT-4 leukemia): > 100 µM | TGI (HOP-62 NSCLC): > 100 µM | TGI (UO-31 renal): > 100 µM | TGI (K-562 leukemia): > 100 µM

COC1CCCCN1C(=O)c1ccccc1 (stereo unspecified)
TGI (NCI-H23 lung): > 25.3 µM | TGI (RXF 393 renal): > 25.3 µM | TGI (HL-60(TB) leukemia): > 25.3 µM | TGI (SK-MEL-5 melanoma): > 25.3 µM | TGI (OVCAR-5 ovarian): > 25.3 µM | TGI (TK-10 renal): > 25.3 µM | TGI (786-0 renal): > 25.3 µM | TGI (DMS 114 small cell lung): > 25.3 µM | TGI (SNB-78 CNS): > 25.3 µM | TGI (SK-MEL-2 melanoma): > 25.3 µM | TGI (M14 melanoma): > 25.3 µM | TGI (SK-OV-3 ovarian): > 25.3 µM | TGI (NCI-H226 lung): > 25.3 µM | TGI (HOP-92 NSCLC): > 25.3 µM | TGI (OVCAR-4 ovarian): > 25.3 µM | TGI (CAKI-1 renal): > 25.3 µM | TGI (IGROV1 ovarian): > 25.3 µM | TGI (U251 CNS): > 25.3 µM | TGI (SNB-75 CNS): > 25.3 µM | TGI (SK-MEL-28 melanoma): > 25.3 µM | TGI (UACC-62 melanoma): > 25.3 µM | TGI (LOX IMVI melanoma): > 25.3 µM | TGI (KM12 colon): > 25.3 µM | TGI (SW-620 colon): > 25.3 µM | TGI (A549 NSCLC): > 25.3 µM | TGI (HCT-15 colon): > 25.3 µM | TGI (ACHN renal): > 25.3 µM | TGI (MALME-3M melanoma): > 25.3 µM | TGI (SR leukemia): > 25.3 µM | TGI (KM20L2 colon): > 25.3 µM | TGI (SNB-19 CNS): > 25.3 µM | TGI (SN12C renal): > 25.3 µM | TGI (HCT-116 colon): > 25.3 µM | TGI (HCC-2998 colon): > 25.3 µM | TGI (SF-268 CNS): > 25.3 µM | TGI (OVCAR-3 ovarian): > 25.3 µM | TGI (MOLT-4 leukemia): > 25.3 µM | TGI (UO-31 renal): > 25.3 µM | TGI (K-562 leukemia): > 25.3 µM
